The text below walks through data of patent publication US10774076B2, “Benzazole compounds and methods for making and using the compounds” (Rigel Pharmaceuticals, Inc., priority 2015, dated 2020).

The subject of the assay is IL23p19. Kind of assay: LPS Induced IL23p19 in THP-1 Cells (with IFNγ Primed) Assay. To be noted: Homo sapiens, IFNγ primed (50 ng/mL), LPS 1 ug/mL, 18 hours, 10 pt, read-out: IL23-p19 ELISA, THP1-IFNy, LPS, 10 pt EC50. It is filed as cell-based. From the text:
LPS Induced IL23p19 in THP-1 Cells (with IFNγ Primed) Assay
THP-1 Cells (ATCC, Cat # TIB-202), Dimethyl Sulfoxide (DMSO) (Sigma-Aldrich, Cat # D2650), RPMI 1640 (Cellgro, Cat #10-040-CM), Fetal Bovine Serum (Sigma, Cat # F4135), Albumin From Bovine Serum (BSA) (Sigma-Aldrich, Cat # A7906), LPS (Serotype K-235, Sigma, Product Number L 2143), IFNγ (Peprotech, Cat #300-02)
Capture antibody: Human IL-23p19 ELISA (e-Bioscience, Cat. #14-7238-85),
Detection antibody: Primary Mouse Biotinylated anti-human IL-12(p40/p70) (e-Bioscience, Cat. #13-7129-85), Secondary HRP-conjugated Streptavidin (R&D Systems, Cat # DY998), 1×PBST Washing Buffer (PBS-Tween tablet) (VWR International, Cat #80058-558), ELISA Blocking Buffer (PBS with 1% BSA), ELISA Dilution Buffer (PBS with 1% BSA), 384 Well Flat-Bottom, MaxiSorp Black Immuno Plates (Thermo Scientific, Cat #12-565-346), 384 Well Flat-Bottom, White Tissue Culture Plates (Thermo Scientific, Cat #12-565-343), Super Signal ELISA Pico Chemiluminescent Substrate (Thermo Scientific, Cat #37070), Cell Titer Glo reagent (Promega, Cat # G7573), Positive control, IKK2VI inhibitor (Calbiochem, Cat #401483), AquaMax 4000 plate washer (Molecular Devices), Luminometer, Wallac Victor2 1420 Multilabel Counter. Method THP-1 Cells Stimulation:
On day 1, 50K/well THP-1 cells were seeded and primed with IFNγ (50 ng/mL) in 384-well plates for about 18 hours in RPMI media with 10% FBS. On day 2, the compound was serially diluted in DMSO from 5 mM in 3-fold dilutions, and then diluted 1:125 in RPMI media with 10% FBS. 50 μL/well 2× compound was added to 50 μL/well THP-1 cells (with IFNγ primed) in duplicate in 384 well tissue culture plates. The cells were pre-incubated with compound for 1 hour at 37° C., 5% CO2 before addition of 10 μL/well 11×LPS to give a final concentration of 1 ug/mL LPS. Day 3, after stimulation for 18 hours at 37° C., 5% CO2, the assay plate was centrifuged and 70 μL/well supernatant was harvested. IL-23p19 protein in 70 μL/well of supernatant was measured by sandwich ELISA, and 25 μl/well Cell Titer Glo reagent was added to the remaining cells to measure compound toxicity.
Human IL-23p19 Sandwich ELISA:
Maxisorp immuno ELISA plates were pre-coated with 25 μL/well of anti-IL-23p19 capture antibody (2.5 ug/mL) in PBS overnight at room temperature. After washing with 1×PBST, the plates were blocked using 100 μL/well of 1% BSA in PBS for 2 hours at room temperature. The plates were washed three times with 1×PBST and 70 μL/well supernatant were added. The plates were incubated at room temperature for 2 hours with shaking and washed three times with 1×PBST. 25 μL/well of biotin labeled anti-IL-12(p40/p70) detection antibody (100 ng/mL) in PBS with 1% BSA was added and the plates were incubated at room temperature for 2 hours with shaking. After washing three times with 1×PBST, 25 μL/well of streptavidin-HRP (1:200) in PBS with 1% BSA was added and the plates were incubated at room temperature for 20 minutes with shaking. The plates were washed three times with 1×PBST and 25 μL/well of Super Signal ELISA Pico Chemiluminescent Substrate were added. The plates were read with a luminometer, and the chemiluminescence values were entered into Athena (Rigel) for curve fitting, EC50 calculation, and database storage.
Take `O=C(Nc1cc2sc(N3CCOCC3)nc2cc1N1CCCCC1)c1ccc(-c2cc[nH]n2)o1` [Compound I-8, N-(2-morpholino-5-(piperidin-1-yl)benzo[d]thiazol-6-yl)-5-(1H-pyrazol-3-yl)furan-2-carboxamide]: the EC50 is 0.614 µM.

With `Nc1ccc(-c2nc(C(=O)Nc3cc4oc(N5CCOCC5)nc4cc3N3CCCCC3)cs2)cn1` [Compound I-11, 2-(6-aminopyridin-3-yl)-N-(2-morpholino-5-(piperidin-1-yl)benzo[d]oxazol-6-yl)thiazole-4-carboxamide], the EC50 worked out at 228 µM.

With `O=C(Nc1cc2oc(N3CCOCC3)nc2cc1N1CCCCC1)c1csc(-c2cc[nH]n2)n1` [Compound I-13, N-(2-morpholino-5-(piperidin-1-yl)benzo[d]oxazol-6-yl)-2-(1H-pyrazol-3-yl)thiazole-4-carboxamide], the EC50 is 2.93 µM.

With `Cc1cc(-c2nc(C(=O)Nc3cc4oc(N5CCOCC5)nc4cc3N3CCC(F)CC3)cs2)ccn1` [Compound I-26, N-(5-(4-fluoropiperidin-1-yl)-2-morpholinobenzo[d]oxazol-6-yl)-2-(2-methylpyridin-4-yl)thiazole-4-carboxamide], the concentration for a half-maximal effect (EC50) was 1.18 µM.

With `Cc1cc(-c2nc(C(=O)Nc3cc4oc(N5CCOCC5)nc4cc3N3CCC(F)(F)CC3)cs2)ccn1` [Compound I-30, N-(5-(4,4-difluoropiperidin-1-yl)-2-morpholinobenzo[d]oxazol-6-yl)-2-(2-methylpyridin-4-yl)thiazole-4-carboxamide], the EC50 came out at 43.5 µM.

For the compound `Cc1cc(-c2ccc(C(=O)Nc3cc4oc(N5CCCCC5)nc4cc3N3CCCCC3)o2)ccn1` [Compound I-33, N-(2,5-di(piperidin-1-yl)benzo[d]oxazol-6-yl)-5-(2-methylpyridin-4-yl)furan-2-carboxamide], the EC50 worked out at 4450 µM.

Regarding `Nc1ccc(-c2nc(C(=O)Nc3cc4oc(N5CCCCC5)nc4cc3N3CCCCC3)cs2)cn1` [Compound I-34, 2-(6-aminopyridin-3-yl)-N-(2,5-di(piperidin-1-yl)benzo[d]oxazol-6-yl)thiazole-4-carboxamide], the EC50 was 8.32 µM.

Turning to `O=C(Nc1cc2oc(N3CCCCC3)nc2cc1N1CCCCC1)c1csc(-c2cc[nH]n2)n1` [Compound I-36, N-(2,5-di(piperidin-1-yl)benzo[d]oxazol-6-yl)-2-(1H-pyrazol-3-yl)thiazole-4-carboxamide], the EC50 came to 5.24 µM.

For the compound `Cc1cc(-c2nc(C(=O)Nc3cc4oc(N5CCCCC5)nc4cc3N3CCCCC3)cs2)ccn1` [Compound I-37, N-(2,5-di(piperidin-1-yl)benzo[d]oxazol-6-yl)-2-(2-methylpyridin-4-yl)thiazole-4-carboxamide], the 50% effective concentration (EC50) stood at 23.1 µM.

As a reminder, the EC50 is the concentration at which the effect is half-maximal.
